From US20240343727A1, “PYRIDAZINONE OR PYRIDINONE COMPOUNDS, PREPARATION METHODS AND USES THEREOF” (InventisBio Co., Ltd., priority 2021, published 2024)

biological target: T1, PARP7 (Homo sapiens, UniProt Q7Z3E1); experiment: PARP7 TR-FRET assay (binding, displacement of biotinylated Probe A); settings: 6 nM PARP7, 2 nM Probe A, 25° C., 30 min
T1 sequence (Q7Z3E1 1-657): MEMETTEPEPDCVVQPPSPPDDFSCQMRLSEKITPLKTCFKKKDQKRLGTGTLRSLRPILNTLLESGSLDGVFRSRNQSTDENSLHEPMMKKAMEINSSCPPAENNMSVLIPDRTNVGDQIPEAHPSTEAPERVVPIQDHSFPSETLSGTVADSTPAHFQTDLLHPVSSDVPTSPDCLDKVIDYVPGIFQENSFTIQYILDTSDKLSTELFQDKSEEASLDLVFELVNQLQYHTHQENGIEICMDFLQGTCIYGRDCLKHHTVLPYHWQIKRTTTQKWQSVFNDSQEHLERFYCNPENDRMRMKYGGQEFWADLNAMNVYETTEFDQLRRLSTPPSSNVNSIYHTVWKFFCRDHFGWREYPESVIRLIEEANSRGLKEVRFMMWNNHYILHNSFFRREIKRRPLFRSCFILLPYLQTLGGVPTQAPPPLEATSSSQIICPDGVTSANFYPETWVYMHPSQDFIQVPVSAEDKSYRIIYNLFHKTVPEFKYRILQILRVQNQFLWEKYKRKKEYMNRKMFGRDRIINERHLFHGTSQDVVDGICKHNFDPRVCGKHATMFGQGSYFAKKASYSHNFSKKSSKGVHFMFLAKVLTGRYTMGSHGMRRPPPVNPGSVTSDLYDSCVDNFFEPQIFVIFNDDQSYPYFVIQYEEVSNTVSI
Outline: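 His-tagged PARP7 at 6 nM was preincubated with compound and 2 nM biotinylated Probe A for 30 min at 25° C (HEPES pH 8.0, NaCl, BSA, DTT, Tween20). Europium-streptavidin/ULight-anti-His FRET was read as the 665/615 nm ratio after a further 30 min. IC50 was fitted from % inhibition normalised to vehicle and blank.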

**Q.** For `C[C@@H]1CN(C(=O)c2cncc(Oc3n[nH]c(=O)c(C(F)(F)F)c3N3CC4(C3)CC(F)(F)C4)c2)CCN1c1cnc(C(F)(F)F)cn1` [Compound 155], which IC50 is on record?
**A.** < 100 nM

**Q.** `O=C(c1cccc(Oc2n[nH]c(=O)c(C(F)(F)F)c2N2CC3(CCC3)C2)c1)N1CCC(F)(F)CC1` [Compound 159] was tested. Which IC50 did it give?
**A.** 100 to 1000 nM

**Q.** For `CC(=O)N1CCN(C(=O)c2cccc(Oc3n[nH]c(=O)c(C(F)(F)F)c3N3CC4(CCC4)C3)c2)CC1` [Compound 160], which IC50 is on record?
**A.** < 100 nM

**Q.** For `N#Cc1ccc(N2CCN(C(=O)c3cccc(Oc4n[nH]c(=O)c(C(F)(F)F)c4N4CC5(CCC5)C4)c3)CC2)nc1` [Compound 161], which IC50 is on record?
**A.** < 100 nM

**Q.** How did the IC50 turn out when `O=C(c1cccc(Oc2n[nH]c(=O)c(C(F)(F)F)c2N2CC3(CCCO3)C2)c1)N1CCN(c2ncc(C(F)(F)F)cn2)CC1` [Compound 162] was run?
**A.** < 100 nM

**Q.** `O=C(c1cccc(Oc2n[nH]c(=O)c(C(F)(F)F)c2N2CC3(COC3)C2)c1)N1CCN(c2ncc(C(F)(F)F)cn2)CC1` [Compound 165] was tested. Which IC50 did it give?
**A.** < 100 nM

**Q.** How did the IC50 turn out when `COC1CN(c2c(Oc3cccc(C(=O)N4CCN(c5ncc(C(F)(F)F)cn5)CC4)c3)n[nH]c(=O)c2C(F)(F)F)C1` [Compound 166] was run?
**A.** < 100 nM

**Q.** `O=C(c1cccc(Oc2n[nH]c(=O)c(C(F)(F)F)c2NC2CC(F)(F)C2)c1)N1CCN(c2ncc(C(F)(F)F)cn2)CC1` [Compound 167] was tested. Which IC50 did it give?
**A.** < 100 nM

**Q.** With `COCCNc1c(Oc2cccc(C(=O)N3CCN(c4ncc(C(F)(F)F)cn4)CC3)c2)n[nH]c(=O)c1C(F)(F)F` [Compound 169] as the molecule, how does the IC50 read?
**A.** < 100 nM

**Q.** How did the IC50 turn out when `CNC1CC(Nc2c(Oc3cccc(C(=O)N4CCN(c5ncc(C(F)(F)F)cn5)CC4)c3)n[nH]c(=O)c2C(F)(F)F)C1` (stereo not drawn) [Compound 171] was run?
**A.** 100 to 1000 nM

**Q.** For `CN(C)CCNc1c(Oc2cccc(C(=O)N3CCN(c4ncc(C(F)(F)F)cn4)CC3)c2)n[nH]c(=O)c1C(F)(F)F` [Compound 172], which IC50 is on record?
**A.** < 100 nM

**Q.** For `O=C(c1cccc(Oc2n[nH]c(=O)c(C(F)(F)F)c2C2CC2)c1)N1CCN(c2ncc(C(F)(F)F)cn2)CC1` [Compound 173], which IC50 is on record?
**A.** < 100 nM

**Q.** With `CC1(C)CN(c2c(Oc3cccc(C(=O)N4CCN(c5ncc(C(F)(F)F)cn5)CC4)c3)n[nH]c(=O)c2C(F)(F)F)C1` [Compound 174] as the molecule, how does the IC50 read?
**A.** < 100 nM

**Q.** `O=C(c1cccc(Oc2n[nH]c(=O)c(C(F)(F)F)c2N2CC3(C2)CC(F)(F)C3)c1)N1CCN(c2ncc(C(F)(F)F)cn2)CC1` [Compound 175] was tested. Which IC50 did it give?
**A.** < 100 nM

**Q.** `O=C(c1cccc(Oc2n[nH]c(=O)c(C(F)(F)F)c2N2CC3(CC(F)C3)C2)c1)N1CCN(c2ncc(C(F)(F)F)cn2)CC1` [Compound 176] was tested. Which IC50 did it give?
**A.** < 100 nM

**Q.** How did the IC50 turn out when `O=C(c1cccc(Oc2n[nH]c(=O)c(C(F)(F)F)c2N2CC3(CCC3)C2)c1)N1CCN(c2ccc(C3CC3)cn2)CC1` [Compound 177] was run?
**A.** < 100 nM

**Q.** With `O=C(c1cccc(Oc2n[nH]c(=O)c(C(F)(F)F)c2N2CC3(CCC3)C2)c1)N1CCn2c(nnc2C(F)(F)F)C1` [Compound 178] as the molecule, how does the IC50 read?
**A.** 100 to 1000 nM

**Q.** How did the IC50 turn out when `O=C(c1cccc(Oc2n[nH]c(=O)c(C(F)(F)F)c2N2CC(C3CC3)C2)c1)N1CCN(c2ncc(C(F)(F)F)cn2)CC1` [Compound 180] was run?
**A.** < 100 nM

**Q.** How did the IC50 turn out when `CC1CN(c2c(Oc3cccc(C(=O)N4CCN(c5ncc(C(F)(F)F)cn5)CC4)c3)n[nH]c(=O)c2C(F)(F)F)C1` [Compound 181] was run?
**A.** < 100 nM

**Q.** Which IC50 does the source give for `O=C(c1cccc(Oc2n[nH]c(=O)c(C(F)(F)F)c2N2CC3(CCC3)C2)c1)N1CCN(c2ccc(Cl)cn2)CC1` [Compound 182] here?
**A.** < 100 nM

**Q.** How did the IC50 turn out when `CC(C)C1CN(c2c(Oc3cccc(C(=O)N4CCN(c5ncc(C(F)(F)F)cn5)CC4)c3)n[nH]c(=O)c2C(F)(F)F)C1` [Compound 183] was run?
**A.** < 100 nM

**Q.** How did the IC50 turn out when `C#CC1CN(c2c(Oc3cccc(C(=O)N4CCN(c5ncc(C(F)(F)F)cn5)CC4)c3)n[nH]c(=O)c2C(F)(F)F)C1` [Compound 185] was run?
**A.** < 100 nM

**Q.** With `COCC1CN(c2c(Oc3cccc(C(=O)N4CCN(c5ncc(C(F)(F)F)cn5)CC4)c3)n[nH]c(=O)c2C(F)(F)F)C1` [Compound 186] as the molecule, how does the IC50 read?
**A.** < 100 nM

**Q.** With `O=C(c1cccc(Oc2n[nH]c(=O)c(C(F)(F)F)c2N2CC3(CCC3)C2)c1)N1CCN(c2ccc(C(F)(F)F)cn2)CC1` [Compound 187] as the molecule, how does the IC50 read?
**A.** < 100 nM
